Laboratory results taken from patent publication US12673954B2 (BRISTOL-MYERS SQUIBB COMPANY, priority 2021, dated 2026).
Like-named read-outs stand apart in the source and are kept apart here.

Columns and labels:
[1] = tested on: NF-κB pathway, THP1-Dual™ cells; assay: STING reporter assay in THP1-Dual cells, NF-κB pathway (SEAP, QUANTI-Blue); assay type: cell-based, human; conditions: read-out: NFkB (EC50 μM)
Method in brief: (§1)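 Activation normalised between DMSO-only baseline and 100 μM cGAMP maximum, after 20 h compound exposure (starting at 100 μM final) at 37° C, 5% CO2. Supernatant SEAP (QUANTI-Blue, OD620) reports NF-κB; secreted luciferase (QUANTI-Luc, RLU at 5 min) reports IRF.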

[2] = tested on: IRF pathway, THP1-Dual™ cells; assay: STING reporter assay in THP1-Dual cells, IRF pathway (Lucia luciferase, QUANTI-Luc); assay type: cell-based, human; conditions: read-out: IRF (EC50 μM)
Method in brief: as §1

[3] = Homo sapiens, THP1-Dual, 20 h, THP1-Dual cells, 10% human plasma, 20 hours, SEAP, 100% activation = 100 μM cGAMP
[4] = Homo sapiens, THP1-Dual, 20 h, THP1-Dual cells, 10% human plasma, 20 hours, Lucia luciferase, 100% activation = 100 μM cGAMP
[5] = THP1-Dual cells, 10% human plasma, 20 hours, SEAP, 100% activation = 100 μM cGAMP
[6] = THP1-Dual cells, 10% human plasma, 20 hours, Lucia luciferase, 100% activation = 100 μM cGAMP

Structure (SMILES) | EC50 [1, 3] | EC50 [2, 4] | other results
O=C(OCC(F)(F)C(F)(F)C(F)(F)CO)c1cc(Cl)cc2cc(CNC(=O)c3cnn4cccnc34)oc12 [EXAMPLE 253, 2,2,3,3,4,4-Hexafluoro-5-hydroxypentyl 5-chloro-2-((pyrazolo[1,5-a]pyrimidine-3-carboxamido)methyl)benzofuran-7-carboxylate] | – | – | EC50 ([1]; Homo sapiens, THP1-Dual, 20 h): 0.93 µM; EC50 ([2]; Homo sapiens, THP1-Dual, 20 h): 0.96 µM
Cc1cc(C(=O)O[C@@H](C)C(F)(F)F)c2oc(CNC(=O)c3cnn4cccnc34)cc2c1 [EXAMPLE 272, (S)-1,1,1-Trifluoropropan-2-yl 5-methyl-2-((pyrazolo[1,5-a]pyrimidine-3-carboxamido)methyl)-benzofuran-7-carboxylate] | 2.2 µM | 2.2 µM | –
COC(OC(=O)c1cc(C(F)(F)F)cc2cc(CNC(=O)c3cnn4cccnc34)oc12)C(F)(F)F (single isomer, unassigned) [EXAMPLE 352, 2,2,2-Trifluoro-1-methoxyethyl 2-((pyrazolo[1,5-a]pyrimidine-3-carboxamido)methyl)-5-(trifluoromethyl)benzofuran-7-carboxylate] | – | – | EC50 [1, 5]: 3.4 µM; EC50 [2, 6]: 1.9 µM
COC(=O)c1cc(Cl)cc2cc(CNC(=O)c3cnn4ccc(OC)nc34)oc12 [Example 51, Methyl 5-chloro-2-((5-methoxypyrazolo[1,5-a]pyrimidine-3-carboxamido)methyl) benzofuran-7-carboxylate] | – | – | EC50 [1, 5]: 3.1 µM; EC50 [2, 6]: 4 µM
CSC(=O)c1cc(Cl)cc2cc(CNC(=O)c3cnn4cccnc34)oc12 [EXAMPLE 395] | 1.9 µM | 2.1 µM | –
CC(NC(=O)c1cnn2cccnc12)c1cc2cc(F)cc(C(=O)O[C@H](C)C(F)(F)F)c2o1 (stereo partly drawn) [EXAMPLE 326, (R)-1,1,1-Trifluoropropan-2-yl 5-fluoro-2-(1-(pyrazolo[1,5-a]pyrimidine-3-carboxamido)ethyl)benzofuran-7-carboxylate] | – | – | EC50 [1, 5]: > 100 µM; EC50 [2, 6]: 74 µM
CC(OC(=O)c1ccc(Cl)c2cc(CNC(=O)c3cnn4cccnc34)oc12)C(F)(F)F (centres unmarked) [EXAMPLE 311, 1,1,1-Trifluoropropan-2-yl 4-chloro-2-((pyrazolo[1,5-a]pyrimidine-3-carboxamido)methyl)benzofuran-7-carboxylate] | – | – | EC50 [1, 5]: 2.3 µM; EC50 [2, 6]: 2 µM
CC(OC(=O)c1ccc(Cl)c2cc(CNC(=O)c3cnn4cccnc34)oc12)C(F)(F)F (centres unmarked) [EXAMPLE 312, 1,1,1-Trifluoropropan-2-yl 4-chloro-2-((pyrazolo[1,5-a]pyrimidine-3-carboxamido)methyl)benzofuran-7-carboxylate] | – | – | EC50 [1, 5]: 56 µM; EC50 [2, 6]: 21 µM
O=C(OCC(F)(F)F)c1cc(F)cc2cc(Cn3ccc4ccncc4c3=O)oc12 [EXAMPLE 362, 2,2,2-Trifluoroethyl 5-fluoro-2-((1-oxo-2,7-naphthyridin-2(1H)-yl)methyl)benzofuran-7-carboxylate] | 4.6 µM | 5.7 µM | –
COC(=O)c1cc(F)cc2c(Cl)c([C@H](C)NC(=O)c3cnn4cccnc34)oc12 [EXAMPLE 111, Methyl (S)-3-chloro-5-fluoro-2-(1-(pyrazolo[1,5-a]pyrimidine-3-carboxamido)ethyl)benzofuran-7-carboxylate] | 1.4 µM | 1.2 µM | –
COC(=O)c1cc(Cl)cc2cc(CNC(=O)c3cnn4ccc(C)nc34)oc12 [Example 54, Methyl 5-chloro-2-((5-methylpyrazolo[1,5-a]pyrimidine-3-carboxamido)methyl) benzofuran-7-carboxylate] | – | – | EC50 [1, 5]: 2.6 µM; EC50 [2, 6]: 2.6 µM
O=C(OCCOCCO)c1cc(Cl)cc2cc(CNC(=O)c3cnn4cccnc34)oc12 [EXAMPLE 249, 2-(2-Hydroxyethoxy)ethy1 5-chloro-2-((pyrazolo[1,5-a]pyrimidine-3-carboxamido)methyl)benzofuran-7-carboxylate] | 2.5 µM | 2.4 µM | –
CC(OC(=O)c1cc(F)cc2cc(Cn3cnc4ccncc4c3=O)oc12)C(F)(F)F (centres unmarked) [EXAMPLE 365, 1,1,1-Trifluoropropan-2-yl 5-fluoro-2-((4-oxopyrido[4,3-d]pyrimidin-3(4H)-yl)methyl)benzofuran-7-carboxylate] | – | – | EC50 [1, 5]: 4.4 µM; EC50 [2, 6]: 7.5 µM
CC(C)OC(=O)c1cc(Cl)cc2cc(CNC(=O)c3cnn4cccnc34)oc12 [EXAMPLE 240, Isopropyl 5-chloro-2-((pyrazolo[1,5-a]pyrimidine-3-carboxamido)methyl)benzofuran-7-carboxylate] | 0.61 µM | 0.78 µM | –
O=C(OCC(F)(F)F)c1cc(Cl)cc2cc(Cn3ccc4ccncc4c3=O)oc12 [EXAMPLE 372, 2,2,2-Trifluoroethyl 5-chloro-2-((1-oxo-2,7-naphthyridin-2(1H)-yl)methyl)benzofuran-7-carboxylate] | 4.6 µM | 3.7 µM | –
COC(=O)c1cc(Cl)cc2cc(CNC(=O)c3cncc(OC)n3)oc12 [Example 60, Methyl 5-chloro-2-((6-methoxypyrazine-2-carboxamido)methyl) benzofuran-7-carboxylate] | – | – | EC50 [1, 5]: 8.9 µM; EC50 [2, 6]: 7.7 µM

Now from value to molecule, other results behind:

EC50 [1, 3] | EC50 [2, 4] | Structure (SMILES) | other results
> 100 µM | 87 µM | Cc1cc(C(=O)O)c2oc(CNC(=O)c3cnn4cc(C)cnc34)c(Cl)c2c1 [EXAMPLE 177, 3-Chloro-5-methyl-2-((6-methylpyrazolo[1,5-a]pyrimidine-3-carboxamido)methyl)benzofuran-7-carboxylic acid] | –
1.9 µM | 2 µM | O=C(OC1CCCCC1)c1cc(Cl)cc2cc(CNC(=O)c3cnn4cccnc34)oc12 [EXAMPLE 244, Cyclohexyl 5-chloro-2-((pyrazolo[1,5-a]pyrimidine-3-carboxamido)methyl)benzofuran-7-carboxylate] | –
13 µM | 12 µM | COC(=O)c1cc(F)cc2cc(CN3Cc4ncncc4C3=O)oc12 [EXAMPLE 44, Methyl 5-fluoro-2-((5-oxo-5,7-dihydro-6H-pyrrolo[3,4-d]pyrimidin-6-yl)methyl)benzofuran-7-carboxylate] | –
1.5 µM | 1.5 µM | COC(=O)c1cc(F)cc2cc([C@H](C)NC(=O)c3cnn4cccnc34)oc12 [EXAMPLE 46, Methyl (S)-5-fluoro-2-(1-(pyrazolo[1,5-a]pyrimidine-3-carboxamido)ethyl)benzofuran-7-carboxylate] | –
1.1 µM | 0.75 µM | COC(=O)c1cc(C(F)(F)F)cc2cc(CNC(=O)c3cnn4cccnc34)oc12 [EXAMPLE 106, Methyl 2-((pyrazolo[1,5-a]pyrimidine-3-carboxamido)methyl)-5-(trifluoromethyl) benzofuran-7-carboxylate] | –
97 µM | 79 µM | COC(=O)c1cccc2cc(Cn3cccc(C#N)c3=O)oc12 [EXAMPLE 18, Methyl 2-((3-cyano-2-oxopyridin-1(2H)-yl)methyl)benzofuran-7-carboxylate] | –
0.39 µM | 0.53 µM | O=C(OCC(F)(F)F)c1cc(Cl)cc2cc(CNC(=O)c3cnn4cccnc34)oc12 [EXAMPLE 239, 2,2,2-Trifluoroethyl 5-chloro-2-((pyrazolo[1,5-a]pyrimidine-3-carboxamido)methyl)benzofuran-7-carboxylate] | –
4.1 µM | 4.3 µM | COC(=O)c1cccc2cc(Cn3ccc4ccncc4c3=O)oc12 [EXAMPLE 7, Methyl 2-((1-oxo-2,7-naphthyridin-2(1H)-yl)methyl)benzofuran-7-carboxylate] | –
3.4 µM | 3.5 µM | COC(=O)c1ccc(C)c2cc(Cn3ccc4ccncc4c3=O)oc12 [EXAMPLE 32] | –
0.89 µM | 0.97 µM | COC(=O)c1cc(Cl)cc2c(Cl)c([C@H](C)NC(=O)c3cnn4cccnc34)oc12 [EXAMPLE 114, Methyl (S)-3,5-dichloro-2-(1-(pyrazolo[1,5-a]pyrimidine-3-carboxamido)ethyl)benzofuran-7-carboxylate] | –
1.2 µM | 1.3 µM | Cc1cc(C(=O)OC(C)C(F)(F)F)c2oc(CNC(=O)c3cnn4cccnc34)cc2c1 (centres unmarked) [EXAMPLE 378, 1,1,1-Trifluoropropan-2-yl 5-methyl-2-((pyrazolo[1,5-a]pyrimidine-3-carboxamido)methyl)benzofuran-7-carboxylate] | –
1.1 µM | 0.93 µM | COC(=O)c1cc(Cl)cc2cc(CNC(=O)c3cncc4cccnc34)oc12 [Example 50, Methyl 2-((1,6-naphthyridine-8-carboxamido)methyl)-5-chlorobenzofuran-7-carboxylate] | –
16 µM | 13 µM | Cc1cc(C(=O)O[C@@H](C)C(F)(F)F)c2oc(C(C)NC(=O)c3cnn4cccnc34)cc2c1 (stereo partly drawn) [EXAMPLE 277, (S)-1,1,1-Trifluoropropan-2-yl 5-methyl-2-(1-(pyrazolo[1,5-a]pyrimidine-3-carboxamido)ethyl)benzofuran-7-carboxylate] | –
2.5 µM | 2.1 µM | CSC(=O)c1cc(F)cc2cc(Cn3cnc4ccncc4c3=O)oc12 [EXAMPLE 385, S-Methyl 5-fluoro-2-((4-oxopyrido[4,3-d]pyrimidin-3(4H)-yl)methyl)benzofuran-7-carbothioate] | –
2.5 µM | 2.7 µM | O=C(OCC(F)(F)F)c1c(F)ccc2cc(CNC(=O)c3cnn4cccnc34)oc12 [EXAMPLE 286, 2,2,2-Trifluoroethyl 6-fluoro-2-((pyrazolo[1,5-a]pyrimidine-3-carboxamido)methyl)benzofuran-7-carboxylate] | –
